Measured values as given in paper PMC11148772, “Inhibition of protein translational machinery in triple-negative breast cancer as a promising therapeutic strategy” (Cell Reports Medicine, 2024).
Where “and” joins values, the source holds several entries; their conditions need not be identical. Equal values may be shown once. Entries after “also recorded” stand apart in the source; their conditions may differ.

Assays:
MDA-MB-231 cells [1] = experiment: Polysome profiling; assay type: cell-based, human; conditions: 1 μM, 12 h
Description: 1 x 10^6 MDA-MB-231 cells were plated in 100 mm culture plate and allowed to be attached for 24 h. Next day, cells were treated with vehicle or SU056 (1 μM) for 12 h in regular culture medium. Next, cells were incubated with cycloheximide (10 μg/mL) for 5 min at 37°C. Cells were then washed twice in 1x PBS with 10 μg/mL cycloheximide and collected by trypsinization and snap freeze in liquid nitrogen. Cell pellet was lysated in 250 μL polysome lysis buffer (5 mM Tris-HCl [pH 7.4], 1.5 mM KCl, 2.5 mM MgCl2, 0.1 mg/mL cycloheximide, 100 U/mL RNasin, 1× EDTA-free Complete protease inhibitor cocktail, 2 mM DTT, 0.5% Triton X-100, 0.5% deoxycholate). Lysate were quantified taking absorbance at 260 nm using Nanodrop and loaded on a linear 15%–50% sucrose gradient. The gradients were ultracentrifuged SW41Ti rotor (Beckman) for 1 h and 30 min at 180,000 g at 4°C in Beckman Optima LE-80K Ultracentrifuge. The gradients were fractionated in 1 mL volume fractions with continuous monitoring absorbance at 254 nm using an ISCO UA-6 UV detector at Immagina Biotechnology, Pergine, Italy.

4T1 cells = experiment: MTT cell viability assay; assay type: cell-based; conditions: Mus musculus, 48 h
Description: (§1) MDA-MB-231 (5000 cells per well), MDA-MB-468 (6000 cells per well), SUM159 (3000 cells per well), 4T1 (2000 cells per well), EMT6 (2000 cells per well), E0771 (3000 cells per well), MCF10A (5000 cells per well) and MCF12A (5000 cells per well) cells were seeded in 96-well culture plates. On the next day, cells were treated with either DMSO or indicated concentrations of SU056 for 48 h 3-(4,5-dimethylthiazol-2-yl)-2,5-diphenyltetrazolium bromide (MTT) (0.5 mg/mL) was dissolved in 1x PBS and 50 μL were added to each well and allowed to form formazan crystals (1–2 h) followed by removal of MTT. Formazan crystals were dissolved in DMSO and plates were scanned at 570nm using a Tecan multimode plate reader.

EMT6 cells = experiment: MTT cell viability assay; assay type: cell-based; conditions: Mus musculus, 48 h
Description: as §1

MDA-MB-231 cells [2] = experiment: MTT cell viability assay; assay type: cell-based; conditions: Homo sapiens, MDA-MB-231, 48 h
Description: as §1

E0771 cells = experiment: MTT cell viability assay; assay type: cell-based; conditions: Mus musculus, 48 h
Description: as §1

MDA-MB-468 cells = experiment: MTT cell viability assay; assay type: cell-based; conditions: Homo sapiens, 48 h
Description: as §1

SUM159 cells = experiment: MTT cell viability assay; assay type: cell-based; conditions: Homo sapiens, 48 h
Description: as §1

Pharmacokinetics study = assay type: in vivo, mouse; conditions: 20 mg/kg oral
Description: Female C57BL/6J mice of 6–7 weeks were purchased from Jackson Laboratory and housed under standard laboratory conditions. SU056 (20 mg/kg) was given by oral gavage. Blood (200–300 μL) was collected retro-orbitally in EDTA-treated tubes after 15, 30, 60, 120, 240 and 360 min of SU056 administration. Blood plasma collected by centrifugation (7000 rpm; 10 min). The concentration of SU056 in plasma was analyzed using an Agilent 6490 iFunnel triple quadrupole mass spectrometer, coupled with an Agilent 1290 infinity II UHPLC. A ZORBAX C18 analytical column (Eclipse Plus, 2.1 × 50 mm, 1.8 μm particle size) was employed in the study. To create the mobile phase, a solution was prepared with 60% water buffered with 0.1% formic acid and 4mM ammonium formate, along with a solution of 40% acetonitrile buffered with 0.1% formic acid. The mobile phase flow rate was set to 0.4 mL/min and the column temperature was adjusted to 30°C. Positive ion mode was selected for operating the electrospray ionization source. Mass spectrometer parameters were optimized as: source temperature 550°C, nebulizer gas (nitrogen) 20 psi, ion spray (IS) voltage 5000 V, collision energy 21 V. Multiple reaction monitoring (MRM) method was used for the detection of SU056 and an internal standard (IS), 4-(2-hydroxyethyl)-6-methoxy-9-phenyl-4,9-dihydrofuro[3,4-b]quinolin-1(3H)-one, a similar analogue of SU056. […] The calibration curve, created with known concentrations of SU056 and IS, enabled the calculation of unknown concentrations of SU056 in plasma at different time points. A 5 μL plasma was taken from each sample and mixed with a 10 μL of IS solution and 990 μL of MS-grade acetonitrile then vortexed for 30 s followed by a 5 min incubation at RT. The mixture was subjected to centrifugation at 11,000 RPM for 15 min at 4°C, leading to the collection of the supernatant which was further cleaned by re-centrifugation. The concentration of SU056 was determined using the HPLC/MS MRM method with each of the three protein-free plasma fractions.[32]

[3] = Maximum tolerated dose / acute oral toxicity; assay type: in vivo, mouse; conditions: for Body Weight, Mean / Toxicity (death/test): ICR (Female) mice
Description: The acute oral toxicity of SU056 was evaluated by Eurofins lab services (Eurofins discovery). The oral toxicity study was performed in female rats and mice for multiple escalating doses (100 mg/kg, 200 mg/kg, 400 mg/kg). Rats and mice were monitored for their behavioral, neurological and autonomic signs after administration of SU056. The response was recorded as 0; no adverse effect, ±1 mild adverse effect, ±2, moderate adverse effect and ±3 severe adverse effect.

[4] = mouse, female C57BL/6J mice, plasma

In the case of `O=C1OCC2=C1C(c1cccc(F)c1)c1cc3c(cc1N2CCO)OCO3` (stereo not drawn) [SU056, 9-(3-fluorophenyl)-5-(2-hydroxyethyl)-6,9-dihydro-[1,3]dioxolo[4,5-g]furo[3,4-b]quinolin-8(5H)-one], the “translational efficiency compared to control cells” value (MDA-MB-231 cells [1]) is reported as “reduced translational efficiency”, the IC50 (4T1 cells) is reported as 7.15 ± 1.26 µM and the IC50 (EMT6 cells) is reported as 1.5 ± 0.12 µM. The IC50 (MDA-MB-231 cells [2]) was 1.27 ± 0.19 µM, the IC50 (E0771 cells) was 1.54 ± 0.14 µM and the IC50 (MDA-MB-468 cells) was 1.36 ± 0.27 µM. The IC50 (SUM159 cells) was 1.17 ± 0.34 µM, the “time a cytotoxic concentration remained in the plasma” value (Pharmacokinetics study; mice) was “up to 6 h” and the half-life (Pharmacokinetics study; female, C57BL/6J, mouse, plasma, po, 20 mg/kg, female C57BL/6J mice, plasma, read-out: half-life (T1/2)) was ~60 min. For the same compound, the Cmax (Pharmacokinetics study; [4]) was 9980 ng/mL and 27 µM, the Tmax (Pharmacokinetics study; [4]) was 15 min and the “Body Weight, Mean” value ([3]; 100 mg/kg, 0 hr) was 23.0 gm. For the same compound, the “Toxicity (death/test)” value ([3]; 100 mg/kg, 15 min) was 0/3, the “Toxicity (death/test)” value ([3]; 100 mg/kg, 1 hr) was 0/3 and the “Body Weight, Mean” value ([3]; 100 mg/kg, 24 hr) was 23.0 gm. The “Toxicity (death/test)” value ([3]; 100 mg/kg, 24 hr) was 0/3, the “Body Weight, Mean” value ([3]; 100 mg/kg, 48 hr) was 23.3 gm and the “Toxicity (death/test)” value ([3]; 100 mg/kg, 48 hr) was 0/3. For the same compound, the “Body Weight, Mean” value ([3]; 100 mg/kg, 72 hr) was 24.3 gm, the “Toxicity (death/test)” value ([3]; 100 mg/kg, 72 hr) was 0/3 and the “Body Weight, Mean” value ([3]; 200 mg/kg, 0 hr) was 23.7 gm. The “Toxicity (death/test)” value ([3]; 200 mg/kg, 15 min) was 0/3, the “Toxicity (death/test)” value ([3]; 200 mg/kg, 1 hr) was 0/3 and the “Body Weight, Mean” value ([3]; 200 mg/kg, 24 hr) was 24.0 gm. The “Toxicity (death/test)” value ([3]; 200 mg/kg, 24 hr) was 0/3, the “Body Weight, Mean” value ([3]; 200 mg/kg, 48 hr) was 24.0 gm and the “Toxicity (death/test)” value ([3]; 200 mg/kg, 48 hr) was 0/3. For the same compound, the “Body Weight, Mean” value ([3]; 200 mg/kg, 72 hr) was 24.3 gm, the “Toxicity (death/test)” value ([3]; 200 mg/kg, 72 hr) was 0/3 and the “Body Weight, Mean” value ([3]; 400 mg/kg, 0 hr) was 22.7 gm. The “Toxicity (death/test)” value ([3]; 400 mg/kg, 15 min) was 0/3, the “Toxicity (death/test)” value ([3]; 400 mg/kg, 1 hr) was 0/3 and the “Body Weight, Mean” value ([3]; 400 mg/kg, 24 hr) was 22.7 gm. For the same compound, the “Toxicity (death/test)” value ([3]; 400 mg/kg, 24 hr) was 0/3, the “Body Weight, Mean” value ([3]; 400 mg/kg, 48 hr) was 23.3 gm and the “Toxicity (death/test)” value ([3]; 400 mg/kg, 48 hr) was 0/3. For the same compound, the “Body Weight, Mean” value ([3]; 400 mg/kg, 72 hr) was 24.3 gm, the “Toxicity (death/test)” value ([3]; 400 mg/kg, 72 hr) was 0/3 and the “behavioral, neurological, and anatomical signs of toxicity and morbidity” value ([3]; mice, 100, 200, and 400 mg/kg oral gavage, 72 h) was “not affected; also recorded: no observable changes”.
